From US12564193B2, “Isoxazoline-substituted benzamide derivative, and preparation method therefor and use thereof” (SHANDONG UNITED PESTICIDE INDUSTRY CO., LTD., priority 2020, dated 2026)
Like-named read-outs stand apart in the source and are kept apart here.

How the values were obtained:
Assay type in all cases: in vivo
[1] = system: Frankliniella occidentalis; assay: Insecticidal activity, spray on pre-infested radish plants: Frankliniella occidentalis; details: Frankliniella occidentalis, 144 h, read-out: fatality rate on Frankliniella occidentalis
Procedure: (§1) For determination of insecticidal activity, the test method was as follows: a test solution with a desired concentration was prepared by dissolving a test compound sample in a suitable solvent (the kind of solvent was such as acetone, methanol, DMSO, etc., and was selected according to its dissolving ability for the sample). The test cell was composed of a small open container with 12-15 day old radish plants inside. The plants were pre-infested by placing 30-40 pests located on one leaf cut from the cultivated plant on one leaf of the test plant (leaf cutting method). As the leaves dehydrated, the pests moved on the test plants. After the pre-infesting, the soil of the test cells was covered with a layer of sand.
The test method was as follows: the test was repeated for three times, and after spraying the formulated test compound, each test unit was allowed to dry for 1 hour, and then a black mesh cover was placed at the top. The test units were kept in a growth chamber at 25° C. and 70% relative humidity for 6 days. The mortality (fatality rate) of the insects was then visually assessed for each test unit, and the fatality rate was calculated as follows:
[formula] (1) Test Results for the Control of Frankliniella occidentalis by Exemplary Example Compounds

Plutella xylostella = assay: Insecticidal activity, spray on pre-infested radish plants: Plutella xylostella; details: Plutella xylostella, 144 h, read-out: fatality rate on Plutella xylostella
Procedure: as §1
(§2) The test method was as follows: the test was repeated for three times, and after spraying the formulated test compound, each test unit was allowed to dry for 1 hour, and then a black mesh cover was placed at the top. The test units were kept in a growth chamber at 25° C. and 70% relative humidity for 6 days. The mortality (fatality rate) of the insects was then visually assessed for each test unit, and the fatality rate was calculated as follows: […]

Pieris rapae = assay: Insecticidal activity, spray on pre-infested radish plants: Pieris rapae; details: 144 h, read-out: fatality rate on Pieris rapae
Procedure: as §1, §2

Mythimna separata = assay: Insecticidal activity, spray on pre-infested radish plants: Mythimna separata; details: Mythimna separata, 144 h, read-out: fatality rate on Mythimna separata
Procedure: as §1, §2

Spodoptera litura = assay: Insecticidal activity, spray on pre-infested radish plants: Spodoptera litura; details: 144 h, read-out: fatality rate on Spodoptera litura
Procedure: as §1, §2

Chilo suppressalis = assay: Insecticidal activity, spray on pre-infested radish plants: Chilo suppressalis; details: Chilo suppressalis, 144 h, read-out: fatality rate on Chilo suppressalis
Procedure: as §1, §2

Cnaphalocrocis medinalis = assay: Insecticidal activity, spray on pre-infested radish plants: Cnaphalocrocis medinalis; details: 144 h, read-out: fatality rate on Cnaphalocrocis medinalis
Procedure: as §1, §2

Tetranychus cinnabarinus = assay: Acaricidal activity, slide immersion of female adult mites: Tetranychus cinnabarinus; details: read-out: fatality rate on Tetranychus cinnabarinus
Procedure: The test method was as follows: a test solution with a desired concentration was prepared by dissolving a test compound sample in a suitable solvent (the kind of solvent was such as acetone, methanol, DMSO, etc., and was selected according to its dissolving ability for the sample). A double-sided adhesive tape was cut into 2-3 cm long pieces, the pieces were attached to one end of a microscope slide, paper pieces on the adhesive tape were removed using tweezers, female adult mites which were consistent in size, bright in body color and lively in action were selected using a zero-size brush pen, the backs of the female adult mites were adhered to the double-sided adhesive tape (note: the adhesion should not cover mite feet, mite whiskers and mouthparts), with 4 rows of mites adhered to each piece and 10 heads of the mites adhered to each row.
One end of the glass slide with the mites was immersed into a drug liquid, with slightly shaking for 5 seconds, and then the slide was taken out. The excess drug liquid around the mite body and is surroundings is quickly sucked off using absorbent paper. The slide was placed in the biochemical incubator described above, and the results were checked by using binoculars after 24 hours. The mites were slightly touched by using a brush pen, the mites with immobility in feet were considered to be dead, and the fatality rate was calculated. The fatality rate was calculated as follows: […]

[2] = dose 1 ppm, immersion 5 seconds, checked after 24 hours
[3] = dose 10 ppm, immersion 5 seconds, checked after 24 hours
[4] = dose 25 ppm, immersion 5 seconds, checked after 24 hours

Cc1cc(C2=NOC(c3cc(F)c(F)c(F)c3)(C(F)(F)F)C2)ccc1C(=O)NCCc1ccc(Cl)nc1 (stereo not drawn) [Compound 16]
> 80%: pest or weed control at 1 ppm ([1]; dose 1 ppm, spray, 6 days) | pest or weed control at 10 ppm ([1]; dose 10 ppm, spray, 6 days) | pest or weed control at 25 ppm ([1]; dose 25 ppm, spray, 6 days) | pest or weed control at 0.1 ppm (Plutella xylostella; dose 0.1 ppm, spray, 6 days) | pest or weed control at 1 ppm (Plutella xylostella; dose 1 ppm, spray, 6 days) | pest or weed control at 10 ppm (Plutella xylostella; dose 10 ppm, spray, 6 days) | pest or weed control at 0.1 ppm (Pieris rapae; dose 0.1 ppm, spray, 6 days) | pest or weed control at 1 ppm (Pieris rapae; dose 1 ppm, spray, 6 days) | pest or weed control at 10 ppm (Pieris rapae; dose 10 ppm, spray, 6 days) | pest or weed control at 0.1 ppm (Mythimna separata; dose 0.1 ppm, spray, 6 days) | pest or weed control at 1 ppm (Mythimna separata; dose 1 ppm, spray, 6 days) | pest or weed control at 10 ppm (Mythimna separata; dose 10 ppm, spray, 6 days) | pest or weed control at 0.1 ppm (Spodoptera litura; dose 0.1 ppm, spray, 6 days) | pest or weed control at 1 ppm (Spodoptera litura; dose 1 ppm, spray, 6 days) | pest or weed control at 10 ppm (Spodoptera litura; dose 10 ppm, spray, 6 days) | pest or weed control at 0.1 ppm (Chilo suppressalis; dose 0.1 ppm, spray, 6 days) | pest or weed control at 1 ppm (Chilo suppressalis; dose 1 ppm, spray, 6 days) | pest or weed control at 10 ppm (Chilo suppressalis; dose 10 ppm, spray, 6 days) | pest or weed control at 0.1 ppm (Cnaphalocrocis medinalis; dose 0.1 ppm, spray, 6 days) | pest or weed control at 1 ppm (Cnaphalocrocis medinalis; dose 1 ppm, spray, 6 days) | pest or weed control at 10 ppm (Cnaphalocrocis medinalis; dose 10 ppm, spray, 6 days) | pest or weed control at 1 ppm (Tetranychus cinnabarinus; [2]) | pest or weed control at 10 ppm (Tetranychus cinnabarinus; [3]) | pest or weed control at 25 ppm (Tetranychus cinnabarinus; [4])

Cc1cc(C2=NOC(c3cc(F)c(F)c(F)c3)(C(F)(F)F)C2)ccc1C(=O)NCc1ncccc1Cl (stereo not drawn) [Compound 14]
> 80%: pest or weed control at 1 ppm ([1]; dose 1 ppm, spray, 6 days) | pest or weed control at 10 ppm ([1]; dose 10 ppm, spray, 6 days) | pest or weed control at 25 ppm ([1]; dose 25 ppm, spray, 6 days) | pest or weed control at 0.1 ppm (Plutella xylostella; dose 0.1 ppm, spray, 6 days) | pest or weed control at 1 ppm (Plutella xylostella; dose 1 ppm, spray, 6 days) | pest or weed control at 10 ppm (Plutella xylostella; dose 10 ppm, spray, 6 days) | pest or weed control at 0.1 ppm (Pieris rapae; dose 0.1 ppm, spray, 6 days) | pest or weed control at 1 ppm (Pieris rapae; dose 1 ppm, spray, 6 days) | pest or weed control at 10 ppm (Pieris rapae; dose 10 ppm, spray, 6 days) | pest or weed control at 0.1 ppm (Mythimna separata; dose 0.1 ppm, spray, 6 days) | pest or weed control at 1 ppm (Mythimna separata; dose 1 ppm, spray, 6 days) | pest or weed control at 10 ppm (Mythimna separata; dose 10 ppm, spray, 6 days) | pest or weed control at 0.1 ppm (Spodoptera litura; dose 0.1 ppm, spray, 6 days) | pest or weed control at 1 ppm (Spodoptera litura; dose 1 ppm, spray, 6 days) | pest or weed control at 10 ppm (Spodoptera litura; dose 10 ppm, spray, 6 days) | pest or weed control at 0.1 ppm (Chilo suppressalis; dose 0.1 ppm, spray, 6 days) | pest or weed control at 1 ppm (Chilo suppressalis; dose 1 ppm, spray, 6 days) | pest or weed control at 10 ppm (Chilo suppressalis; dose 10 ppm, spray, 6 days) | pest or weed control at 0.1 ppm (Cnaphalocrocis medinalis; dose 0.1 ppm, spray, 6 days) | pest or weed control at 1 ppm (Cnaphalocrocis medinalis; dose 1 ppm, spray, 6 days) | pest or weed control at 10 ppm (Cnaphalocrocis medinalis; dose 10 ppm, spray, 6 days) | pest or weed control at 1 ppm (Tetranychus cinnabarinus; [2]) | pest or weed control at 10 ppm (Tetranychus cinnabarinus; [3]) | pest or weed control at 25 ppm (Tetranychus cinnabarinus; [4])

Cc1cc(C2=NOC(c3cc(Cl)c(F)c(Cl)c3)(C(F)(F)F)C2)ccc1C(=O)NCCc1cnccc1C(F)(F)F (stereo not drawn) [Compound 17]
> 80%: pest or weed control at 1 ppm [1] | pest or weed control at 10 ppm [1] | pest or weed control at 25 ppm [1] | pest or weed control at 0.1 ppm (Plutella xylostella) | pest or weed control at 1 ppm (Plutella xylostella) | pest or weed control at 10 ppm (Plutella xylostella) | pest or weed control at 0.1 ppm (Pieris rapae) | pest or weed control at 1 ppm (Pieris rapae) | pest or weed control at 10 ppm (Pieris rapae) | pest or weed control at 0.1 ppm (Mythimna separata) | pest or weed control at 1 ppm (Mythimna separata) | pest or weed control at 10 ppm (Mythimna separata) | pest or weed control at 0.1 ppm (Spodoptera litura) | pest or weed control at 1 ppm (Spodoptera litura) | pest or weed control at 10 ppm (Spodoptera litura) | pest or weed control at 0.1 ppm (Chilo suppressalis) | pest or weed control at 1 ppm (Chilo suppressalis) | pest or weed control at 10 ppm (Chilo suppressalis) | pest or weed control at 0.1 ppm (Cnaphalocrocis medinalis) | pest or weed control at 1 ppm (Cnaphalocrocis medinalis) | pest or weed control at 10 ppm (Cnaphalocrocis medinalis) | pest or weed control at 1 ppm (Tetranychus cinnabarinus; 24 h) | pest or weed control at 10 ppm (Tetranychus cinnabarinus; 24 h) | pest or weed control at 25 ppm (Tetranychus cinnabarinus; 24 h)

Cc1cc(C2=NOC(c3cc(Cl)c(F)c(Cl)c3)(C(F)(F)F)C2)ccc1C(=O)NCc1cnc(Cl)cc1Cl (stereo not drawn) [Compound 7]
> 80%: pest or weed control at 1 ppm [1] | pest or weed control at 10 ppm [1] | pest or weed control at 25 ppm [1] | pest or weed control at 0.1 ppm (Plutella xylostella) | pest or weed control at 1 ppm (Plutella xylostella) | pest or weed control at 10 ppm (Plutella xylostella) | pest or weed control at 0.1 ppm (Pieris rapae) | pest or weed control at 1 ppm (Pieris rapae) | pest or weed control at 10 ppm (Pieris rapae) | pest or weed control at 0.1 ppm (Mythimna separata) | pest or weed control at 1 ppm (Mythimna separata) | pest or weed control at 10 ppm (Mythimna separata) | pest or weed control at 0.1 ppm (Spodoptera litura) | pest or weed control at 1 ppm (Spodoptera litura) | pest or weed control at 10 ppm (Spodoptera litura) | pest or weed control at 0.1 ppm (Chilo suppressalis) | pest or weed control at 1 ppm (Chilo suppressalis) | pest or weed control at 10 ppm (Chilo suppressalis) | pest or weed control at 0.1 ppm (Cnaphalocrocis medinalis) | pest or weed control at 1 ppm (Cnaphalocrocis medinalis) | pest or weed control at 10 ppm (Cnaphalocrocis medinalis) | pest or weed control at 1 ppm (Tetranychus cinnabarinus; 24 h) | pest or weed control at 10 ppm (Tetranychus cinnabarinus; 24 h) | pest or weed control at 25 ppm (Tetranychus cinnabarinus; 24 h)
